The text below walks through data of patent US12162855B2, “Tetrahydroquinolino derivatives for the treatment of metastatic and chemoresistant cancers” (THE TRUSTEES OF PRINCETON UNIVERSITY, priority 2018, dated 2024).

The series can be described thus: Plasma pharmacokinetics in mice by LC/MS/MS. Format: in vivo, mouse. Particulars: for half-life / AUC(0-inf) / Clearance: mice, dose 25 mg/kg; for AUC(0-inf): noncompartment model. How it is done:
Pharmacokinetic experiments were performed on 16-week old C57BL6 male mice. Mice were administered MBE1.5 (15% DMSO, 5% Kolliphor EL, 80% PBS) via IP injection. Blood was collected by terminal cardiac puncture at 15 minutes, 30 minutes, 1 hour, 3 hours, and 24 hours post-injection. Serum was obtained by blood separation via centrifugation at 16200 RCF for 1 min. Tissues were then collected following exsanguination. Serum and tissues were rapidly frozen in liquid nitrogen and submitted for pharmacokinetic evaluation.
Plasma MBE1.5 concentration was measured with LC/MS/MS assay in mice PK studies.
Chemicals: MBE1.5 and MBE2.0 were supplied as stocks (1 mg/mL) in MeOH with 1% DMSO. MBE2.0 was used as internal standard. HPLC grade acetonitrile and water were purchased from J.T. Baker (Center Valley, PA). The mouse plasma was purchased from Innovative Research (Novi, MI) for the preparation of plasma calibration standards.
Preparation of standard solution: MBE1.5 stock was diluted in control mice plasma to obtain calibration range from 8.2 ng/mL to 18 μg/mL. 1 μg/mL MBE2.0 in methanol was used as a working internal standard (IS).
Sample preparation: The plasma standard and mouse plasma samples (204) were spiked with 54 μL IS and deproteinized with 1204 acetonitrile and methanol (v/v 5:1). After centrifugation at 13000 rpm for 15 minutes, 254 of the supernatant was analyzed by LC-MS.
Liquid Chromatographic/Mass spectrometry: Quantitation of MBE1.5 was performed using TSQ Quantum triple quadruple mass spectrometer equipped with an API electrospray ionization (ESI) source, a Surveyor MS pump, a Surveyor Autosampler, with Xcalibur data acquisition software (ThermoElectron, San Jose, CA, USA).
LC conditions were as follows: mobile phase A: aqueous solution (0.1% formic acid); mobile phase B: acetonitrile (0.1% formic acid); flow rate 500 μL/min; gradient elution, 0 to 1 minute, 60% A; 1 to 2.5 minutes, 60% to 20% A; 2.5 to 7.0 minutes, 0% A, 7.0 to 9.0 minutes 0% A, 9.0 to 11.0 minutes, 0% to 60% A; and column: Luna® C18, 150×4.6 mm, 5 μm (Phenomenex, Torrance, CA). The retention times for MBE1.5 and IS were 6.3 minutes and 6.6 minutes, respectively.
MS/MS conditions were as follows: in single reaction monitoring mode, m/z 313.2/178.2 (MBE1.5), m/z 281.2/119.1 (MBE2.0, IS); ion spray voltage, 4500 v; capillary temperature 350° C.; sheath gas pressure 20 arbitrary units; Aux gas pressure 50 arbitrary units; collision pressure 1.5 arbitrary units. The collision energy and tube lens were optimized for each compound.
Calculation: Plasma calibration standards were used for the quantitation of MBE in plasma samples. The log linear regression was used for calibration curve to determine the concentration in plasma samples.
Preliminary PK data was analyzed using noncompartment model by Winnolin 2.0.

Setting [1] is: male, C57BL6, mouse, plasma, ip, 25 mg/kg, i.p., calculation: time point to 3 hr.
Where [2] appears, read: male, C57BL6, mouse, plasma, ip, 25 mg/kg, i.p., calculation: time point to 24 hr.

“And” between values parts separate entries of the source, which are not always exact repeats. Equal values may be shown once. Marks after values point to notes of the source that are not given here.

Regarding `CCc1ccccc1C(=O)Nc1cc2c(cc1F)NC(=O)CC2` [MBE1.5, 2-ethyl-N-(7-fluoro-2-oxo-1,2,3,4-tetrahydroquinolin-6-yl)benzamide], the “Concentration in mouse plasma, individual mice” value (Time 0 hr, mice #1-#3, LOD 8.2 ng/mL) is “<LOD”; the “Concentration in mouse plasma, individual mice” value (Time 0.5 hr, i.p., mice #1-#3) was 6932 ng/mL and 3411 ng/mL and 4650 ng/mL; the “Concentration in mouse plasma, individual mice” value (Time 1 hr, i.p., mice #1-#3) is 2842 ng/mL and 6295 ng/mL and 2815 ng/mL; the “Concentration in mouse plasma, individual mice” value (Time 3 hr, i.p., mice #1-#3) was 1704 ng/mL and 3447 ng/mL and 849 ng/mL; the “Concentration in mouse plasma, individual mice” value (Time 24 hr, i.p., mice #1-#3, LOD 8.2 ng/mL) is “<LOD”. Besides, the “Concentration in mouse plasma, individual mice, forced to calculate” value (Time 24 hr, i.p., mice #1-#3, integrated peak area less than LOD) is 0.002* μg/ml and 0.006* μg/ml and 0.005* μg/ml. Besides, where the note is “Time 24 hr, i.p., LOD 8.2 ng/mL”, the “Concentration in mouse plasma, Mean” value was “<LOD”. Under “male, C57BL6, mouse, plasma, ip, 25 mg/kg, Time 0.5 hr”, this compound had a concentration at 0.5 h of 5000 ng/mL. The same compound had a concentration at 1 h (male, C57BL6, mouse, plasma, ip, 25 mg/kg, Time 1 hr) of 3980 ng/mL. Under “male, C57BL6, mouse, plasma, ip, 25 mg/kg, Time 3 hr”, this compound displayed a concentration at 3 h of 2000 ng/mL. For the setting “male, C57BL6, mouse, plasma, ip, 25 mg/kg, Time 24 hr, i.p., integrated peak area less than LOD, read-out: Concentration in mouse plasma, Mean, forced to calculate”, the concentration at 24 h was 4 ng/mL. Moreover, the half-life (usually the time needed for the level to fall by half in the phase considered) was 1.9 h under setting [1] and 2.32 h under setting [2]. Also, the AUC(0-inf) (as a rule, the area under the concentration-time curve extrapolated to infinity) was 15700 ng·h/mL under setting [1] and 16900 ng·h/mL under setting [2]. Moreover, the Clearance runs as follows: (i.p., calculation: time point to 3 hr) 39.87 mL/h; (i.p., calculation: time point to 24 hr) 36.96 mL/h.
